What was measured:
Format in all cases: functional
Staphylococcus aureus = experiment: Antibacterial activity against Staphylococcus aureus incubated for 16 to 18 hrs by broth microdilution assay
[1] = system: Mycolicibacterium smegmatis; experiment: Antimycobacterial activity against Mycobacterium smegmatis incubated for 48 hrs by resazurin microplate assay
Escherichia coli = experiment: Antibacterial activity against Escherichia coli incubated for 16 to 18 hrs by broth microdilution assay
[2] = system: Mycolicibacterium smegmatis; experiment: Potentiation of vancomycin-induced antimycobacterial activity against Mycobacterium smegmatis assessed as vancomycin MIC90 at 25 ug/ml after 48 hrs by resazurin microplate assay (reference value: 0.5 ug/ml)
[3] = system: Mycolicibacterium smegmatis; experiment: Potentiation of rifampicin-induced antimycobacterial activity against Mycobacterium smegmatis assessed as rifampicin MIC90 at 25 ug/ml after 48 hrs by resazurin microplate assay (reference value: 8 ug/ml)
[4] = system: Mycolicibacterium smegmatis; experiment: Potentiation of streptomycin-induced antimycobacterial activity against Mycobacterium smegmatis assessed as streptomycin MIC90 at 25 ug/ml after 48 hrs by resazurin microplate assay (reference value: 0.25 ug/ml)
[5] = system: Mycolicibacterium smegmatis; experiment: Potentiation of isoniazid-induced antimycobacterial activity against Mycobacterium smegmatis assessed as isoniazid MIC90 at 25 ug/ml after 48 hrs by resazurin microplate assay (reference value: 200 ug/ml)
[6] = system: Mycolicibacterium smegmatis; experiment: Potentiation of kanamycin-induced antimycobacterial activity against Mycobacterium smegmatis assessed as kanamycin MIC90 at 25 ug/ml after 48 hrs by resazurin microplate assay (reference value: 2.5 ug/ml)
[7] = system: Mycolicibacterium smegmatis; experiment: Potentiation of erythromycin-induced antimycobacterial activity against Mycobacterium smegmatis assessed as erythromycin MIC90 at 25 ug/ml after 48 hrs by resazurin microplate assay (reference value: 10 ug/ml)
[8] = system: Mycolicibacterium smegmatis; experiment: Potentiation of erythromycin-induced antimycobacterial activity against Mycobacterium smegmatis assessed as reduction in erythromycin MIC90 at 25 ug/ml after 48 hrs by resazurin microplate assay relative to control

Row | Structure (SMILES) | MIC (Staphylococcus aureus) | MIC90 [1] | MIC (Escherichia coli) | MIC90 [2] | MIC90 [3] | MIC90 [4] | MIC90 [5] | MIC90 [6] | MIC90 [7] | fold change (FC) [8]
1 | C[C@@H]1OC=C2C(=O)OCC[C@H]2[C@@H]1C(=O)O | > 128 µg/mL | > 25 µg/mL | > 128 µg/mL |  |  |  |  |  |  | 
2 | C[C@@H]1Cc2cccc(O)c2C(=O)O1 [(-)-(R)-MELLEIN] | > 128 µg/mL | > 25 µg/mL | > 128 µg/mL | 2.5 µg/mL | 8 µg/mL | 0.125 µg/mL | 100 µg/mL | 1 µg/mL | 0.625 µg/mL | 16
3 | C[C@@H]1OCC2=C(CCOC2=O)[C@H]1CO | > 128 µg/mL | > 25 µg/mL | > 128 µg/mL | 0.125 µg/mL | 8 µg/mL | 0.125 µg/mL | 100 µg/mL | 1 µg/mL | 1.25 µg/mL | 8
4 | O=Cc1cccc2c1[C@H]1[C@@H]3OC(=O)c4cccc(C=O)c4[C@@H]3[C@H]1OC2=O | > 128 µg/mL | > 25 µg/mL | > 128 µg/mL |  |  |  |  |  |  | 
5 | C[C@@H]1OCC2=C(CCOC2=O)[C@@H]1CO | > 128 µg/mL | > 25 µg/mL | > 128 µg/mL |  |  |  |  |  |  | 
6 | C/C=C1\COC(OC)C2=C1CCOC2=O (centres undefined) | > 128 µg/mL | > 25 µg/mL | > 128 µg/mL |  |  |  |  |  |  | 
7 | COc1cc(/C=C/C(=O)OCCCCCCCCCCCCCCCCCCCCCCCCCCCCCC=O)ccc1O | > 128 µg/mL | > 25 µg/mL | > 128 µg/mL | 2.5 µg/mL | 8 µg/mL | 0.125 µg/mL | 100 µg/mL | 1 µg/mL | 2.5 µg/mL | 
8 | O=Cc1cccc2c(=O)occc12 | > 128 µg/mL | > 25 µg/mL | > 128 µg/mL | 2.5 µg/mL | 8 µg/mL | 0.125 µg/mL | 100 µg/mL | 1 µg/mL | 1.25 µg/mL | 8
9 | C[C@H]1[C@@H]2C(=O)OCC[C@@H]2C[C@H]1O | > 128 µg/mL | > 25 µg/mL | > 128 µg/mL |  |  |  |  |  |  | 
